Measurements as given in patent publication US20150164762A1, “USE OF ETHANOLAMINE PHOSPHATE” (priority 2012, published 2015).

System: BEAS-2B
Assay: Comprehensive gene expression analysis with Whole Human Genome DNA microarray after EP treatment
Format: cell-based
Experimental: Cells of the established normal human airway epithelial cell line BEAS-2B were used in the experiment. These cells were expansively cultured in 10% FBS RPMI-1640, and seeded at a density of 1×10^5/cm^2 on a 24-well plate. After 24 hours 0.1% FBS RPMI-1640 was substituted, and EP was administered to a final concentration of 0 or 1 mM (n=4). After 24 hours, the cells were used as the DNA microarray samples. RNA was extracted using a QIAGEN RNeasy Mini Kit. The DNA microarray test was performed using a Whole Human Genome DNA microarray 4×44K (Agilent), and the necessary labeling reagents and the like for the DNA microarray test were all from Agilent. The DNA microarray test data were analyzed statistically with GeneSpring (Agilent) dedicated analysis software, and gene function analysis (Gene Ontology (GO) analysis) was performed based on differential expression. The purpose of the GO analysis is to determine stochastically the degree to which gene sets with statistically significant differential expression correspond to known functional classification gene sets. […] The p-value is calculated according to the following formula.

[1] = probe A_23_P149529, 1 mM EP, 24 h
[2] = probe A_23_P151294, NM_000619, EP vs control
[3] = probe A_23_P151294, 1 mM EP, 24 h
[4] = probe A_23_P151649, NM_080649, EP vs control
[5] = probe A_23_P156310, 1 mM EP, 24 h
[6] = probe A_23_P159210, 1 mM EP, 24 h
[7] = probe A_23_P160025, 1 mM EP, 24 h
[8] = probe A_23_P163787, 1 mM EP, 24 h
[9] = probe A_23_P167096, 1 mM EP, 24 h
[10] = probe A_23_P167585, NM_005260, EP vs control
[11] = probe A_23_P168882, 1 mM EP, 24 h
[12] = probe A_23_P168909, 1 mM EP, 24 h
[13] = probe A_23_P169030, 1 mM EP, 24 h
[14] = probe A_23_P169738, 1 mM EP, 24 h
[15] = probe A_23_P201808, 1 mM EP, 24 h
[16] = probe A_23_P202978, 1 mM EP, 24 h
[17] = probe A_23_P206077, 1 mM EP, 24 h
[18] = probe A_23_P206396, 1 mM EP, 24 h
[19] = probe A_23_P206661, NM_000903, EP vs control
[20] = probe A_23_P207003, 1 mM EP, 24 h
[21] = probe A_23_P207999, 1 mM EP, 24 h
[22] = probe A_23_P208706, 1 mM EP, 24 h
[23] = probe A_23_P209625, NM_000104, EP vs control
[24] = probe A_23_P211762, 1 mM EP, 24 h
[25] = probe A_23_P211957, 1 mM EP, 24 h
[26] = probe A_23_P213706, NM_000589, EP vs control
[27] = probe A_23_P213745, NM_004887, EP vs control
[28] = probe A_23_P214950, 1 mM EP, 24 h
[29] = probe A_23_P217866, 1 mM EP, 24 h
[30] = probe A_23_P250554, 1 mM EP, 24 h
[31] = probe A_23_P252817, 1 mM EP, 24 h
[32] = probe A_23_P253932, 1 mM EP, 24 h
[33] = probe A_23_P255653, 1 mM EP, 24 h
[34] = probe A_23_P258194, 1 mM EP, 24 h
[35] = probe A_23_P258310, NM_144651, EP vs control
[36] = probe A_23_P259071, NM_001657, EP vs control
[37] = probe A_23_P303210, 1 mM EP, 24 h

For `NCCOP(=O)(O)O` [EP, Ethanolamine phosphate], the “TACSTD2 expression R*: Ratio to control” value [1] was 1.507 times, the “TACSTD2 expression log2 [ratio]” value [1] was 0.591 and the “IFNG gene expression, R* ratio to control” value [2] was 0.611 times. The “IFNG gene expression, log2 [ratio]” value [2] was −0.710, the “IFNG expression R*: Ratio to control” value [3] was 0.611 times and the “IFNG expression log2 [ratio]” value [3] was −0.710. The “APEX1 gene expression, R* ratio to control” value [4] was 1.455 times, the “APEX1 gene expression, log2 [ratio]” value [4] was 0.541 and the “SKP2 expression R*: Ratio to control” value [5] was 1.531 times. The “SKP2 expression log2 [ratio]” value [5] was 0.615, the “CDKN1A expression R*: Ratio to control” value [6] was 0.439 times and the “CDKN1A expression log2 [ratio]” value [6] was −1.187. The “IFI16 expression R*: Ratio to control” value [7] was 0.629 times, the “IFI16 expression log2 [ratio]” value [7] was −0.669 and the “MMP2 expression R*: Ratio to control” value [8] was 1.578 times. The “MMP2 expression log2 [ratio]” value [8] was 0.658, the “VEGFC expression R*: Ratio to control” value [9] was 1.637 times and the “VEGFC expression log2 [ratio]” value [9] was 0.711. The “GDF9 gene expression, R* ratio to control” value [10] was 0.357 times, the GDF9 gene expression, log2 [ratio] [10] was -1.49 and the “TP53INP1 expression R*: Ratio to control” value [11] was 0.395 times. The “TP53INP1 expression log2 [ratio]” value [11] was −1.339, the “ZFPM2 expression R*: Ratio to control” value [12] was 1.678 times and the “ZFPM2 expression log2 [ratio]” value [12] was 0.746. For the same molecule, the “TNFRSF10B expression R*: Ratio to control” value [13] was 0.636 times, the “TNFRSF10B expression log2 [ratio]” value [13] was −0.653 and the “SOX7 expression R: Ratio to control” value [14] was 0.362 times. The “SOX7 expression log2 [ratio]” value [14] was −1.464, the “PPAP2B expression R*: Ratio to control” value [15] was 1.919 times and the “PPAP2B expression log2 [ratio]” value [15] was 0.941. The “CASP1 expression R*: Ratio to control” value [16] was 0.641 times, the “CASP1 expression log2 [ratio]” value [16] was −0.642 and the “AEN expression R*: Ratio to control” value [17] was 0.420 times. For the same molecule, the “AEN expression log2 [ratio]” value [17] was −1.253, the “CKLF expression R*: Ratio to control” value [18] was 1.601 times and the “CKLF expression log2 [ratio]” value [18] was 0.679. The “NQO1 gene expression, R* ratio to control” value [19] was 1.480 times, the “NQO1 gene expression, log2 [ratio]” value [19] was 0.566 and the “SEPT4 expression R*: Ratio to control” value [20] was 0.503 times. The “SEPT4 expression log2 [ratio]” value [20] was −0.990, the “PMAIP1 expression R: Ratio to control” value [21] was 0.344 times and the “PMAIP1 expression log2 [ratio]” value [21] was −1.540. The “BAX expression R*: Ratio to control” value [22] was 0.453 times, the “BAX expression log2 [ratio]” value [22] was −1.143 and the “CYP1B1 gene expression, R* ratio to control” value [23] was 1.584 times. For the same molecule, the “CYP1B1 gene expression, log2 [ratio]” value [23] was 0.663, the “COL8A1 expression R*: Ratio to control” value [24] was 1.643 times and the “COL8A1 expression log2 [ratio]” value [24] was 0.716. For the same molecule, the “TGFBR2 expression R*: Ratio to control” value [25] was 1.634 times, the “TGFBR2 expression log2 [ratio]” value [25] was 0.708 and the “IL4 gene expression, R* ratio to control” value [26] was 0.420 times. For the same molecule, the “IL4 gene expression, log2 [ratio]” value [26] was −1.251, the “CXCL14 gene expression, R* ratio to control” value [27] was 0.364 times and the “CXCL14 gene expression, log2 [ratio]” value [27] was −1.456. The “PERP expression R: Ratio to control” value [28] was 0.521 times, the “PERP expression log2 [ratio]” value [28] was −0.941 and the “1FI16 expression R*: Ratio to control” value [29] was 0.585 times. The “1FI16 expression log2 [ratio]” value [29] was −0.773, the “AGGF1 expression R*: Ratio to control” value [30] was 1.523 times and the “AGGF1 expression log2 [ratio]” value [30] was 0.607. For the same molecule, the “SST expression R: Ratio to control” value [31] was 0.666 times, the “SST expression log2 [ratio]” value [31] was −0.587 and the “FAIM expression R*: Ratio to control” value [32] was 1.670 times. For the same molecule, the “FAIM expression log2 [ratio]” value [32] was 0.740, the “TNFRSF10A expression R*: Ratio to control” value [33] was 0.402 times and the “TNFRSF10A expression log2 [ratio]” value [33] was −1.314. For the same molecule, the “A1FM3 expression R*: Ratio to control” value [34] was 0.580 times, the “A1FM3 expression log2 [ratio]” value [34] was −0.761 and the “PXDNL gene expression, R* ratio to control” value [35] was 2.426 times. The “PXDNL gene expression, log2 [ratio]” value [35] was 1.278, the “AREG gene expression, R* ratio to control” value [36] was 0.128 times and the “AREG gene expression, log2 [ratio]” value [36] was −2.969. The “IKBIP expression R*: Ratio to control” value [37] was 0.468 times and the “IKBIP expression log2 [ratio]” value [37] was −1.095.
